Experimental data published in ChEMBL document CHEMBL3991601, “The target landscape of clinical kinase drugs” (Science, 2017).
Calls of active or inactive are those of the source.

Columns and labels:
[1] = target: T1, Uncharacterized protein FLJ45252 (Homo sapiens, UniProt Q6ZSR9); settings: read-out: Kd apparent; k-562, colo 205, sk-n-be(2) and mv-4-11
T1 sequence (Q6ZSR9 whole entry): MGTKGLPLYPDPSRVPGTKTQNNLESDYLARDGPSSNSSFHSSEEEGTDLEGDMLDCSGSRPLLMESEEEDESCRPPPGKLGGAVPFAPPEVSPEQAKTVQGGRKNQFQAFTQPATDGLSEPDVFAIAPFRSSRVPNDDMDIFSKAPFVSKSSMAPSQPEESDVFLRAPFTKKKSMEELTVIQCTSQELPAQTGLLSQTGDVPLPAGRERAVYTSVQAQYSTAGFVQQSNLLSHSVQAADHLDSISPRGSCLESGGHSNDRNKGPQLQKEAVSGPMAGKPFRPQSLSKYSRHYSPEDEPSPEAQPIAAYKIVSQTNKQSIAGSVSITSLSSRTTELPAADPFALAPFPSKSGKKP

Actin-related protein 2 = Actin-related protein 2 (Homo sapiens, UniProt P61160)
[2] = target: T2, Serine/threonine-protein kinase A-Raf (Homo sapiens, UniProt P10398)
T2 sequence (P10398 whole entry): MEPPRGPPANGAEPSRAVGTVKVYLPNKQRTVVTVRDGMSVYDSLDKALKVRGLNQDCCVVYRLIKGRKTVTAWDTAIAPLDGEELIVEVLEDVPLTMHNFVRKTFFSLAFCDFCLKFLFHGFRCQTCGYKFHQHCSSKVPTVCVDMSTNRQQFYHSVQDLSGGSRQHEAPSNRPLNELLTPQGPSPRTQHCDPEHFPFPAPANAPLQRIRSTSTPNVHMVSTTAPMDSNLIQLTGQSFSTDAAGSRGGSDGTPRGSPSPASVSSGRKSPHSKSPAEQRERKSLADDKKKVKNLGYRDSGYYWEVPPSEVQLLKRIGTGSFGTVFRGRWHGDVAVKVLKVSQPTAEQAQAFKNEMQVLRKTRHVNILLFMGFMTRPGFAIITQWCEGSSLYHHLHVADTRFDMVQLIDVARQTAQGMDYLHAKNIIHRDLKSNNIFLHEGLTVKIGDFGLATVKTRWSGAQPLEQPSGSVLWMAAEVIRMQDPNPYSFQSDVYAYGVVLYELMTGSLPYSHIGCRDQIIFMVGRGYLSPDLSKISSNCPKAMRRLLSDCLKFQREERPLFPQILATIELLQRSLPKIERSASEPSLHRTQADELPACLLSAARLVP

[3] = target: Inosine-5'-monophosphate dehydrogenase 2 (Homo sapiens, UniProt P12268)
[4] = target: Serine/threonine-protein kinase/endoribonuclease IRE1 (Homo sapiens, UniProt O75460)
[5] = target: Serine/threonine-protein kinase B-raf (Homo sapiens, UniProt P15056)
[6] = target: Mitogen-activated protein kinase 11 (Homo sapiens, UniProt Q15759)
[7] = target: Protein kinase C beta type (Homo sapiens, UniProt P05771)
[8] = target: Ribosomal protein S6 kinase beta-1 (Homo sapiens, UniProt P23443)
[9] = target: cAMP-dependent protein kinase catalytic subunit gamma (Homo sapiens, UniProt P22612)
[10] = target: Adenylate kinase 2, mitochondrial (Homo sapiens, UniProt P54819)
[11] = target: T3, Mitogen-activated protein kinase kinase kinase kinase 2 (Homo sapiens, UniProt Q12851)
T3 sequence (Q12851 whole entry): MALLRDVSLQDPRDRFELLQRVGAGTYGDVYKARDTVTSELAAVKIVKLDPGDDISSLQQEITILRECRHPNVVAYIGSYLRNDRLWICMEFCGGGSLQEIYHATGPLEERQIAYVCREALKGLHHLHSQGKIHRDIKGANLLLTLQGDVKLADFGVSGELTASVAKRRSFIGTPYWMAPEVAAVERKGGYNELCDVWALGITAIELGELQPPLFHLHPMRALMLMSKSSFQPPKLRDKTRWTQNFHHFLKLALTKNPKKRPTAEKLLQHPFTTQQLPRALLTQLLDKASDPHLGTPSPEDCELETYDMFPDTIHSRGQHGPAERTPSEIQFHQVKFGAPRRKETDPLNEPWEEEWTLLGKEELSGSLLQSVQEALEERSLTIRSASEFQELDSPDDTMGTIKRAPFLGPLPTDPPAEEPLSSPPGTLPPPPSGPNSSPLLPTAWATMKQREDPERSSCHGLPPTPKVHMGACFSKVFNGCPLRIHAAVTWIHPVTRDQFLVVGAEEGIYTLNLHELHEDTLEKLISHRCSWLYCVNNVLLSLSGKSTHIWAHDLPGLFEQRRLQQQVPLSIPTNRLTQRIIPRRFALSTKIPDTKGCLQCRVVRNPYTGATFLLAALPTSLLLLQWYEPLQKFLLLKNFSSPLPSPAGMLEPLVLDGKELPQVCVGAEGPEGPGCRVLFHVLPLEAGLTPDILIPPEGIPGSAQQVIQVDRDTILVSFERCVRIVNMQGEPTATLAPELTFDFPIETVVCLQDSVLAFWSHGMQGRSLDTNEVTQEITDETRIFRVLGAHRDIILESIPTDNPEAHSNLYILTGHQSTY

[12] = target: T4, Dual specificity mitogen-activated protein kinase kinase 6 (Homo sapiens, UniProt P52564)
T4 sequence (P52564 whole entry): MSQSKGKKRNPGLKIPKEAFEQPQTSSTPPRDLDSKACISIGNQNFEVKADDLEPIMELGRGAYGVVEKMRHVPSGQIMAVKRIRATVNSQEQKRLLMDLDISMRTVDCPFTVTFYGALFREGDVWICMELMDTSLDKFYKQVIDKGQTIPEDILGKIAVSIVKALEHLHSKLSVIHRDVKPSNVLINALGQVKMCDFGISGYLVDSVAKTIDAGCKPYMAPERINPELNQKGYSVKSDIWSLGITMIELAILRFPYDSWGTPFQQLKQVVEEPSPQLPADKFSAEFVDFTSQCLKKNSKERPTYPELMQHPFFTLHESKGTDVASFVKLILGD
Note: in the data inactive means no Kd found up to 30 µM.

Chain of cAMP-dependent protein kinase catalytic subunit gamma (P22612 whole entry): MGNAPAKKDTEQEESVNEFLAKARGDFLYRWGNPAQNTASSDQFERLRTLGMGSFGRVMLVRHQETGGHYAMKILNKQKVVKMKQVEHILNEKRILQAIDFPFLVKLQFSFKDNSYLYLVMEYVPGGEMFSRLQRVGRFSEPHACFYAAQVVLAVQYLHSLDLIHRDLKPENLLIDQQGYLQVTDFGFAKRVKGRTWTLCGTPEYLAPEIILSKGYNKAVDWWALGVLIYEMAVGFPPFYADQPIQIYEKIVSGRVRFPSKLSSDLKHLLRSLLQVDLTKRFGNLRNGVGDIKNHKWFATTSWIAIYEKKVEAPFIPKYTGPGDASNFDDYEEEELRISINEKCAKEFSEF
Chain of Mitogen-activated protein kinase 11 (Q15759 whole entry): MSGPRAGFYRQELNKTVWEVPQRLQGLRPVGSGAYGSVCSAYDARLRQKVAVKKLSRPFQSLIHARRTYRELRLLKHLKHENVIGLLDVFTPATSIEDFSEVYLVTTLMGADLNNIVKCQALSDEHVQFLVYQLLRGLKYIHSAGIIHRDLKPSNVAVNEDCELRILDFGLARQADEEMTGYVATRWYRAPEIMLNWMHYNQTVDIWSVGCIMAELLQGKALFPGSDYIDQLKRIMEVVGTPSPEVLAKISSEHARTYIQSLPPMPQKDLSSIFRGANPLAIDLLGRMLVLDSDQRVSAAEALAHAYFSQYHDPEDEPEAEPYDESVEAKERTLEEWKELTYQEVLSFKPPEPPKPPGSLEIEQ
Chain of Protein kinase C beta type (P05771 whole entry): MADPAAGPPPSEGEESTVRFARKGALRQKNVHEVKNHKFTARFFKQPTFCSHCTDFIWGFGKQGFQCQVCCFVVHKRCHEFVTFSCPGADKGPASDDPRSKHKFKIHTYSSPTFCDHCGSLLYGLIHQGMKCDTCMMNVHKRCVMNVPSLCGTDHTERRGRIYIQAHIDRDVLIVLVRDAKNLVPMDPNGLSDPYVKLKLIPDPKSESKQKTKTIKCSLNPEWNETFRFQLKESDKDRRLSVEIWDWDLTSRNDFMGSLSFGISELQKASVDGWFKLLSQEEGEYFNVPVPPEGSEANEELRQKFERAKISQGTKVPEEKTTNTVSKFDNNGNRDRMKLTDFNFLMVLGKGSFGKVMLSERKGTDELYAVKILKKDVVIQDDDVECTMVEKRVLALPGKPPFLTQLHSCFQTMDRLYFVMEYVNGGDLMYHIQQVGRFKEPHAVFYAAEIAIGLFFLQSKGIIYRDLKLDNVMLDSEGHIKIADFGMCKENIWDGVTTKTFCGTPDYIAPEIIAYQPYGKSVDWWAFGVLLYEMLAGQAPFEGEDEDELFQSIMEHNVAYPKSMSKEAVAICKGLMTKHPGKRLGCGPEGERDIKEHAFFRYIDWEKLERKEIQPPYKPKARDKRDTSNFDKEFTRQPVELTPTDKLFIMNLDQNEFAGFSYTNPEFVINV
Chain of Ribosomal protein S6 kinase beta-1 (P23443 whole entry): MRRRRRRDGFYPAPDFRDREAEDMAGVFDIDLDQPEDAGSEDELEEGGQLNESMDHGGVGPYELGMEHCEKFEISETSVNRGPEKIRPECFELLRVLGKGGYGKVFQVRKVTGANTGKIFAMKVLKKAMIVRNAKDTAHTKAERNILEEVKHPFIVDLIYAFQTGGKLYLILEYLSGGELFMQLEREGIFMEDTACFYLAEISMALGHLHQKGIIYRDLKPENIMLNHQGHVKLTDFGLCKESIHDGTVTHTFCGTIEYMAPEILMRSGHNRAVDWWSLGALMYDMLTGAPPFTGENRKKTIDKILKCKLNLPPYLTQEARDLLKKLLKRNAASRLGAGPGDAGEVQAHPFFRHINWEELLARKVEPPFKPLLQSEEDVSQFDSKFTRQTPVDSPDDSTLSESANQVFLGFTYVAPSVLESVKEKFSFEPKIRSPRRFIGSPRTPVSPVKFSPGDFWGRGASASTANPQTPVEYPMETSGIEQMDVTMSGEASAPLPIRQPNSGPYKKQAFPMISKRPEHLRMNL
Chain of Serine/threonine-protein kinase/endoribonuclease IRE1 (O75460 whole entry): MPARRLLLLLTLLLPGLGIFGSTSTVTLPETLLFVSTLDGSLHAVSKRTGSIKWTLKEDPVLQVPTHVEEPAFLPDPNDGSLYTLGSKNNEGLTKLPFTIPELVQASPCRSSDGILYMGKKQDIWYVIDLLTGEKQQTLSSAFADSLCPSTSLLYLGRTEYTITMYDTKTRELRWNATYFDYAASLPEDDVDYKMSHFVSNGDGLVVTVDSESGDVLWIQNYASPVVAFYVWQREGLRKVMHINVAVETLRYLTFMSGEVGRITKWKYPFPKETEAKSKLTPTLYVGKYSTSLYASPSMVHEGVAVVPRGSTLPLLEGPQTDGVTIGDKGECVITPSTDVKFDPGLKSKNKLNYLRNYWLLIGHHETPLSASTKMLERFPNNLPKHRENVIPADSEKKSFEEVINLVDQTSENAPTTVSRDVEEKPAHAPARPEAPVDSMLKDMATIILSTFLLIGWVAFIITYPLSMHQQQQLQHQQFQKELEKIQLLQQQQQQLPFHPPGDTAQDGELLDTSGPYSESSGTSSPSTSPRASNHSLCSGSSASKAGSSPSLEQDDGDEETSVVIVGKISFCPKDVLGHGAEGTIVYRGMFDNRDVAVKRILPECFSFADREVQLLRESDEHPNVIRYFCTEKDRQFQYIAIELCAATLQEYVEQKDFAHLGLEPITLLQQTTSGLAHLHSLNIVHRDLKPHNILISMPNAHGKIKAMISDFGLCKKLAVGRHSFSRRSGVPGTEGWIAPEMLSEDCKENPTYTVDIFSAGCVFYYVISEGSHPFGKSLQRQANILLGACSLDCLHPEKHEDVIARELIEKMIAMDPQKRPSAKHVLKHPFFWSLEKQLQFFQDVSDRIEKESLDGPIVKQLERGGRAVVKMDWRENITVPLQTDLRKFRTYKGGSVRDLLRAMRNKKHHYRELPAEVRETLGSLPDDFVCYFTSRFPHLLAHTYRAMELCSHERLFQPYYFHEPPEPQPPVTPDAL
Chain of Serine/threonine-protein kinase B-raf (P15056 whole entry): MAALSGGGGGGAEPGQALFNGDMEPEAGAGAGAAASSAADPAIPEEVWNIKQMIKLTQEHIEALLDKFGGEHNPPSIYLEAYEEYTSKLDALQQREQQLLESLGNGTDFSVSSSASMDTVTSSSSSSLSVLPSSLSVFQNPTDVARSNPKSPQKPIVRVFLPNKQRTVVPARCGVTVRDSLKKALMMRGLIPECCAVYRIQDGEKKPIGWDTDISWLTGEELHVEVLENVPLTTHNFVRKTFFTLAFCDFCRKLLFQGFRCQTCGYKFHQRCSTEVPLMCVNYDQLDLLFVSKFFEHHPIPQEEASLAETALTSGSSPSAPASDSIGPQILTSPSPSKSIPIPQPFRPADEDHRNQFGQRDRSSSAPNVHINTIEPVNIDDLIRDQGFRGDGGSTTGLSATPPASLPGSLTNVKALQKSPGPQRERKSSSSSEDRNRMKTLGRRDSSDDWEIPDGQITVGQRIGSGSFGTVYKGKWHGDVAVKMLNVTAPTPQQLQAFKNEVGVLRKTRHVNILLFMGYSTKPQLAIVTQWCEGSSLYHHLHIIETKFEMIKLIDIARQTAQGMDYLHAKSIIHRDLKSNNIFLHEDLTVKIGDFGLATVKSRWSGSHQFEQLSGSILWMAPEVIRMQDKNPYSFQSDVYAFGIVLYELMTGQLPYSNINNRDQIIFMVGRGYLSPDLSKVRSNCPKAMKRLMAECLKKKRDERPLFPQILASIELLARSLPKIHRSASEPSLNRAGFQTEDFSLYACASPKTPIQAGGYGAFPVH

SMILES	Kd [1]	Kd (Actin-related protein 2)	Kd [2]	Kd [3]	Kd [4]	Kd [5]	Kd [6]	Kd [7]	Kd [8]	Kd [9]	Kd [10]	Kd [11]	Kd [12]
CCc1nc(C(N)=O)c(Nc2ccc(N3CCC(N4CCN(C)CC4)CC3)c(OC)c2)nc1NC1CCOCC1 [GILTERITINIB]	0.011 µM (active)	> 30 µM (inactive)	> 30 µM (inactive)	> 30 µM (inactive)	> 30 µM (inactive)	> 30 µM (inactive)	> 30 µM (inactive)	> 30 µM (inactive)	> 30 µM (inactive)	> 30 µM (inactive)	> 30 µM (inactive)	0.244 µM (active)	1.89 µM (active)
Cn1cc(-c2[nH]c3cc(NC(=O)[C@H](N)C4CCCCC4)cc4c3c2C=NNC4=O)cn1	0.002 µM (active)	> 30 µM (inactive)	> 30 µM (inactive)	> 30 µM (inactive)	> 30 µM (inactive)	> 30 µM (inactive)	> 30 µM (inactive)	> 30 µM (inactive)	2.38 µM (active)	> 30 µM (inactive)	> 30 µM (inactive)	> 30 µM (inactive)	> 30 µM (inactive)
c1cc(OCCN2CCCCC2)cc(-c2n[nH]c3ccc(-c4nc[nH]n4)cc23)c1 [CC-401]	2.53 µM (active)	> 30 µM (inactive)	> 30 µM (inactive)	> 30 µM (inactive)	> 30 µM (inactive)	> 30 µM (inactive)	> 30 µM (inactive)	> 30 µM (inactive)	> 30 µM (inactive)	> 30 µM (inactive)	> 30 µM (inactive)	> 30 µM (inactive)	> 30 µM (inactive)

Now from value to compound:

Kd [1]	Kd (Actin-related protein 2)	Kd [2]	Kd [3]	Kd [4]	Kd [5]	Kd [6]	Kd [7]	Kd [8]	Kd [9]	Kd [10]	Kd [11]	Kd [12]	SMILES
> 30 µM (inactive)	> 30 µM (inactive)	> 30 µM (inactive)	> 30 µM (inactive)	> 30 µM (inactive)	> 30 µM (inactive)	> 30 µM (inactive)	> 30 µM (inactive)	> 30 µM (inactive)	0.002 µM	> 30 µM (inactive)	> 30 µM (inactive)	> 30 µM (inactive)	COc1ccc2c(OCc3nnc4ccc(-c5ccccc5)nn34)ccnc2c1 [AMG-208]
> 30 µM (inactive)	> 30 µM (inactive)	> 30 µM (inactive)	> 30 µM (inactive)	> 30 µM (inactive)	> 30 µM (inactive)	> 30 µM (inactive)	> 30 µM (inactive)	> 30 µM (inactive)	> 30 µM (inactive)	> 30 µM (inactive)	> 30 µM (inactive)	> 30 µM (inactive)	COc1cc2nccc(Oc3ccc(NC(=O)C4(C(=O)Nc5ccc(F)cc5)CC4)cc3)c2cc1OC [CABOZANTINIB]
> 30 µM (inactive)	> 30 µM (inactive)	> 30 µM (inactive)	> 30 µM (inactive)	> 30 µM (inactive)	> 30 µM (inactive)	> 30 µM (inactive)	> 30 µM (inactive)	> 30 µM (inactive)	> 30 µM (inactive)	> 30 µM (inactive)	> 30 µM (inactive)	> 30 µM (inactive)	COc1cccc2cc(-c3nc([C@H]4CC[C@H](C(=O)O)CC4)n4ncnc(N)c34)[nH]c12 [OSI-027]
0.869 µM (active)	> 30 µM (inactive)	> 30 µM (inactive)	> 30 µM (inactive)	> 30 µM (inactive)	> 30 µM (inactive)	> 30 µM (inactive)	> 30 µM (inactive)	> 30 µM (inactive)	> 30 µM (inactive)	> 30 µM (inactive)	> 30 µM (inactive)	> 30 µM (inactive)	Cc1cc(C(=O)Nc2cc(Oc3ccc4nc(NC(=O)C5CC5)cn4n3)ccc2C)n(C)n1 [TAK-593]
